Data published in patent publication US20140271922A1, “PIRENZEPINE AS AN AGENT IN CANCER TREATMENT” (PROTEOSYS AG, priority 2009, published 2014).
Entries after “also recorded” stand apart in the source; their conditions may differ.

Test system: Human H460 Large Cell Lung Cancer (NCI-H460 human NSCLC cells)
Experiment: Tumor growth in the H460 lung tumor xenograft model
Type: in vivo, Female NMRI nude mice
Details: for effect on tumor growth, single agent (in words): PSY 310 alone, 50 mg/kg/d po, 50 mg/kg/day; for potentiation of the cytostatic effects of cisplatin (in words): PSY 310 po co-administered with cisplatin ip
Description: PSY 310 was tested with 2 different dosing schedules of cisplatin. • Animals: Female NMRI nude mice (Janvier, Le Genest St Isle, France), age: 6-7 weeks at start of experiment Janvier, Le Genest St Isle, France; age 5-6 weeks). 70 animals were inoculated at the beginning of the experiment. • Cells: Human H460 Large Cell Lung Cancer (ATCC: HTB-177); • 3×10^6 cells from cell culture was inoculated subcutaneously per mouse in a volume of 200 μl on day 0. • Application route: subcutaneously; • 1 tumor/mouse • Tumor volume at • start of therapy: 62.5-100 mm^3 • (formula: a×b^2×0.5; a: length, b width) • Test compounds: Cisplatin, • PSY 310 (Pirenzepine) • Dosing: Cisplatin • 1) high dose: 1×/week, 2 weeks (days 7, 14) • dose: 2.5 mg/kg/day; route: ip • 2) low dose 5×/week, 2 weeks (days 7-11+14-18) • dose: 0.15 mg/kg/day; route: ip • PSY 310 • 1×/day for 12 days (days 7-19) • dose: 50 and 20 mg/kg/day; route: po • Vehicle/solvent: Cisplatin:water for injection • PSY 310: PBS, oral gavage • Application volume: 10 ml/kg • Criteria for study termination: Animal weight loss >20% • Tumor >10% body weight or ulceration of tumors • Parameters: […] [table] [table] NCI-H460 human NSCLC cells were implanted in the flanks of immunodeficient mice and growth of the resultant solid tumors was recorded. Mice were assigned to seven treatment groups as indicated above. Tumor dimensions (and animal body weights) were measured on days 10, 14, 17, and 21 after inoculation, and tumor volumes were calculated. As tumor growth was close to exponential evaluations were performed on the common logarithms of tumor volumes in order to render the data suitable for evaluation by a linear model. […] Alternatively, the ratios log(volume)/log(initial volume) were employed, yielding very similar results. Tumors with extremely small initial volumes (<20 μl) in which volume measurements are expected to be rather imprecise were omitted from the evaluations. Comparisons were carried out in the following way: • The slopes of log(volume) over time (i.e. the exponent of the approximately exponential volume growth) were determined for each animal. The ratios of the exponents averaged over the respective groups are given as a measure of the magnitude of the growth retarding effect of the current treatment. • Multivariate variance analyses using the day of measurement and Cisplatin/PSY 310 treatment as model effects were performed.

SMILES | exponent ratio (ratio of group-averaged slopes of log(tumor volume) over time) (Cisplatin high (2.5 mg/kg/day ip) versus Cisplatin low (0.15 mg/kg/day ip), ANOVA p = 0.91) | exponent ratio (ratio of group-averaged slopes of log(tumor volume) over time) (Cisplatin high (2.5 mg/kg/day ip, 1x/week, 2 weeks) versus Control, ANOVA p = 0.014) | exponent ratio (ratio of group-averaged slopes of log(tumor volume) over time) (Cisplatin low (0.15 mg/kg/day ip, 5x/week, 2 weeks) versus Control, ANOVA p = 0.077) | effect on tumor growth of cisplatin alone (in words) (cisplatin ip, low and high dose regimens) | exponent ratio (ratio of group-averaged slopes of log(tumor volume) over time) (PSY 310 50 mg/kg/day po alone (1x/day, 12 days) versus Cisplatin high, ANOVA p = 0.016) | exponent ratio (ratio of group-averaged slopes of log(tumor volume) over time) (PSY 310 50 mg/kg/day po alone (1x/day, 12 days) versus Control, ANOVA p = 0.0003) | effect on tumor growth, single agent (in words) | effect on tumor growth, single agent (in words) (listed as Pirenzepine) | potentiation of the cytostatic effects of cisplatin (in words) | potentiation of the cytostatic effects of cisplatin (in words) (listed as Pirenzepine)
N.N.[Cl][Pt][Cl] [Cisplatin] | 0.96 | 0.81 | 0.85 | moderate effects | – | – | – | – | – | –
CN1CCN(CC(=O)N2c3ccccc3C(=O)Nc3cccnc32)CC1 [PSY 310] | – | – | – | – | 0.74 | 0.61 | even more effective than cisplatin-low dose and cisplatin-high dose regimens; also recorded: single agent cytostatic properties; also recorded: major effect | significant anti-cancer activity by itself | potentiating the cytostatic effects of cisplatin | significant potentiating anti-cancer activity
